{
  "source": "paper PMC9067978",
  "about": "“Design, synthesis, and molecular docking studies of novel pomalidomide-based PROTACs as potential anti-cancer agents targeting EGFR^WT and EGFR^T790M” (Journal of Enzyme Inhibition and Medicinal Chemistry, 2022)",
  "key": {"MCF-7 [1]": {"test_system": "MCF-7", "assay": "DNA-flow cytometric cell cycle analysis, MCF-7", "assay_type": "cell-based, human", "settings": "3.92 µM, 24 hours", "protocol": "(§1) Then, the influence of compound 16 on the cell cycle profile was then investigated.\n(§2) The cells that had been tested were then trypsinized and washed in sterilised phosphate buffer saline (PBS). The collected cells were fixed with cold ethanol (100%, 1.5 ml). According to the manufacturer’s instructions, a Cycle TESTTM PLUS DNA Reagent Kit was used to dye the cells (BD Biosciences, San Jose, CA). A flow cytometer was used to assess cell-cycle distribution.[52]"}, "HepG-2 [2]": {"test_system": "HepG-2", "assay": "DNA-flow cytometric cell cycle analysis, HepG-2", "assay_type": "cell-based, human", "settings": "3.02 µM, 24 hours", "protocol": "as §1, §2"}, "HCT-116 [3]": {"test_system": "HCT-116", "assay": "DNA-flow cytometric cell cycle analysis, HCT-116", "assay_type": "cell-based, human", "settings": "3.32 µM, 24 hours", "protocol": "as §1, §2"}, "MCF-7 [4]": {"test_system": "MCF-7", "assay": "Annexin V/propidium iodide apoptosis assay, MCF-7", "assay_type": "cell-based, human", "settings": "3.92 µM, 24 hours", "protocol": "(§3) The double staining Annexin V/propidium iodide technique was performed to assess the mechanism of cell death and apoptosis-inducing activity.[46] […] As shown in (Figure 7 (A and B).\n(§4) The negative control was chosen to be DMSO. The cells were then collected and washed twice in PBS. The cells were separated using centrifugation. An apoptosis detection kit (BD Biosciences, SanJose, CA) was used in this investigation. Following the manufacturer’s instructions, the cells were dyed with Annexin V-FITC and propidium iodide (PI) in the binding buffer for 20 minutes at 37 °C in the darkness. A flow cytometer was used to assess the binding of Annexin V-FITC and PI. The frequencies in all quadrants were investigated using the Flowjo program.[53]"}, "HepG-2 [5]": {"test_system": "HepG-2", "assay": "Annexin V/propidium iodide apoptosis assay, HepG-2", "assay_type": "cell-based, human", "settings": "3.02 µM, 24 hours", "protocol": "as §3, §4"}, "HCT-116 [6]": {"test_system": "HCT-116", "assay": "Annexin V/propidium iodide apoptosis assay, HCT-116", "assay_type": "cell-based, human", "settings": "3.32 µM, 24 hours", "protocol": "as §3, §4"}, "MCF-7 [7]": {"test_system": "MCF-7", "assay": "MTT anti-proliferative assay, MCF-7", "experimental": "(§5) The anti-proliferative activity was quantified in the following way. At a density of 3–8 × 10^3 cells per well, human cancer cell lines were introduced to 96-well plates. The wells were then incubated at 37 °C for 12 hours in 5% CO2 incubator. To determine the DMSO content, the culture media was swapped with 0.1 ml of fresh medium containing graded amounts of the test compounds for each well. Incubation time for the wells was two days. The cells were then cultured in 100 µl MTT solution (5 µg ml^−1) for another 4 hours in each well.\n(§6) The absorbance of each well was measured at 490 nm with an automated ELISA reader system (TECAN, CHE) after MTT-formazan crystals were dissolved in 100 µl of DMSO. The IC50 values were calculated using nonlinear regression fitting models (Graph Pad, Prism Version 5). The results were expressed as means ± SD and were based on the average of three separate, duplicate trials."}, "HepG-2 [8]": {"test_system": "HepG-2", "assay": "MTT anti-proliferative assay, HepG-2", "experimental": "as §5, §6"}, "[9]": {"settings": "ratio of cytotoxic IC50 to erlotinib"}},
  "data": [
    {"compound": "Cn1c(=O)c(C(=O)NNCCOCCOCC(=O)Nc2cccc3c2C(=O)N(C2CCC(=O)NC2=O)C3=O)nc2ccccc21", "note": "(stereo not shown) [Compound 16, N-(2-(2,6-dioxopiperidin-3-yl)-1,3-dioxoisoindolin-4-yl)-2-(2-(2-(2-(4-methyl-3-oxo-3,4-dihydroquinoxaline-2-carbonyl) hydrazinyl)ethoxy)ethoxy) acetamide]", "values": [
      {"measurement": "fold increase of cells in G2-M phase vs control, MCF-7", "setting": "MCF-7 [1]", "value": 1.53, "unit": "fold"},
      {"measurement": "fold increase of cells in pre-G1 phase vs control, MCF-7", "setting": "MCF-7 [1]", "value": 4.39, "unit": "fold"},
      {"measurement": "fold increase of cells in G2-M phase vs control, HepG-2", "setting": "HepG-2 [2]", "value": 1.61, "unit": "fold"},
      {"measurement": "fold increase of cells in pre-G1 phase vs control, HepG-2", "setting": "HepG-2 [2]", "value": 6.76, "unit": "fold"},
      {"measurement": "fold increase of cells in G2-M phase vs control, HCT-116", "setting": "HCT-116 [3]", "value": 1.49, "unit": "fold"},
      {"measurement": "fold increase of cells in pre-G1 phase vs control, HCT-116", "setting": "HCT-116 [3]", "value": 5.37, "unit": "fold"},
      {"measurement": "cellular apoptosis, early and late, times vs control, MCF-7", "setting": "MCF-7 [4]", "value": "~9", "unit": "times"},
      {"measurement": "early apoptosis ratio, MCF-7", "setting": "MCF-7 [4]", "value": 4.18, "unit": "%"},
      {"measurement": "late apoptosis ratio, MCF-7", "setting": "MCF-7 [4]", "value": 5.07, "unit": "%"},
      {"measurement": "cellular apoptosis, early and late, folds vs control, HepG-2", "setting": "HepG-2 [5]", "value": "~13", "unit": "folds"},
      {"measurement": "early apoptosis ratio, HepG-2", "setting": "HepG-2 [5]", "value": 7.55, "unit": "%"},
      {"measurement": "late apoptosis ratio, HepG-2", "setting": "HepG-2 [5]", "value": 5.53, "unit": "%"},
      {"measurement": "cellular apoptosis, early and late, times vs control, HCT-116", "setting": "HCT-116 [6]", "value": "~9", "unit": "times"},
      {"measurement": "early apoptosis ratio, HCT-116", "setting": "HCT-116 [6]", "value": 5.96, "unit": "%"},
      {"measurement": "late apoptosis ratio, HCT-116", "setting": "HCT-116 [6]", "value": 5.15, "unit": "%"},
      {"measurement": "IC50", "setting": "MCF-7 [7]; Homo sapiens, MCF7, read-out: IC50 MCF-7", "value": "3.92 ± 0.19", "unit": "µM"},
      {"measurement": "folds more active than erlotinib, MCF-7", "setting": "MCF-7 [7]; [9]", "value": 5.55, "unit": "folds"},
      {"measurement": "IC50", "setting": "HepG-2 [8]; Homo sapiens, HepG2, read-out: IC50 HepG-2", "value": "3.02 ± 0.12", "unit": "µM"},
      {"measurement": "folds more active than erlotinib, HepG-2", "setting": "HepG-2 [8]; [9]", "value": 4.34, "unit": "folds"}
    ]}
  ]
}
